Assay results from patent publication US20250171438A1 (Agios Pharmaceuticals, Inc., priority 2022, published 2025).

target: T1, human PAH with the R408W mutation (Homo sapiens, UniProt P00439, R408W); experiment: Cell Based Phenylalanine Flux Assay; conditions: A375 cells expressing human R408W PAH; 24 hrs compound incubation; 13C-Tyrosine by LC-MS; average where tested multiple times; read-out: AC50
T1 construct: expressed in transfected cells
T1 sequence (P00439 1-452 R408W): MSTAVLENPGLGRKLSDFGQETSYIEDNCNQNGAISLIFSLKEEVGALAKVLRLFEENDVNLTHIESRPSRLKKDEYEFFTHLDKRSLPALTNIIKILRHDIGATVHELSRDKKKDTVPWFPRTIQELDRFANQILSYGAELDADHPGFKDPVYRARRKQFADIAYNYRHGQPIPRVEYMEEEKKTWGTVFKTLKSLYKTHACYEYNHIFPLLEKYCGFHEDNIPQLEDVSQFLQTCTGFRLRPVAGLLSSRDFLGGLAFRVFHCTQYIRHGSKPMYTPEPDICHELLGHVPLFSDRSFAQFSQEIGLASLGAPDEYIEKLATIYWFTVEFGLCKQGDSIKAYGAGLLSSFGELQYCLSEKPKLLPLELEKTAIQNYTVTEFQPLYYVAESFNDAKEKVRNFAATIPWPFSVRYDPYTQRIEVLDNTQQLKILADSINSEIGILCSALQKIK

| Compound | AC50 [µM] |
| --- | --- |
| CC(C)(O)c1cc(C(=O)N2CCc3[nH]cnc3[C@H]2c2nc3c(F)cccc3s2)on1 [Example 2170, (S)-(4-(4-fluorobenzo[d]thiazol-2-yl)-6,7-dihydro-1H-imidazo[4,5-c]pyridin-5(4H)-yl)(3-(2-hydroxypropan-2-yl)isoxazol-5-yl)methanone] | 1 to 5 |
| Cn1nc(C(F)F)nc1C(=O)N1CCc2[nH]cnc2[C@@H]1c1nc2ccccc2s1 [Example 2172, (R)-(4-(benzo[d]thiazol-2-yl)-6,7-dihydro-1H-imidazo[4,5-c]pyridin-5(4H)-yl)(3-(difluoromethyl)-1-methyl-1H-1,2,4-triazol-5-yl)methanone] | > 5 |
| Cc1cccc2nc([C@@H]3c4nc[nH]c4CCN3C(=O)c3cnco3)sc12 [Example 2179, (S)-(4-(7-methylbenzo[d]thiazol-2-yl)-6,7-dihydro-1H-imidazo[4,5-c]pyridin-5(4H)-yl)(oxazol-5-yl)methanone] | < 0.5 |
| CC(C)(C)c1ncoc1C(=O)N1CCc2[nH]cnc2[C@@H]1c1nc2c(F)cccc2s1 [Example 2182, (R)-(4-(tert-butyl)oxazol-5-yl)(4-(4-fluorobenzo[d]thiazol-2-yl)-6,7-dihydro-1H-imidazo[4,5-c]pyridin-5(4H)-yl)methanone] | 1 to 5 |
| O=C(c1oc(C2CC2)nc1C(F)(F)F)N1CCc2[nH]cnc2[C@H]1c1nc2c(F)cccc2s1 [Example 2183, (S)-(2-cyclopropyl-4-(trifluoromethyl)oxazol-5-yl)(4-(4-fluorobenzo[d]thiazol-2-yl)-1,4,6,7-tetrahydro-5H-imidazo[4,5-c]pyridin-5-yl)methanone] | < 0.5 |
| O=C(c1oc(C2CC2)nc1C(F)(F)F)N1CCc2[nH]cnc2[C@@H]1c1nc2c(F)cccc2s1 [Example 2184, (R)-(2-cyclopropyl-4-(trifluoromethyl)oxazol-5-yl)(4-(4-fluorobenzo[d]thiazol-2-yl)-1,4,6,7-tetrahydro-5H-imidazo[4,5-c]pyridin-5-yl)methanone] | < 0.5 |
| O=C(c1oc(C2(O)CC2)nc1C(F)(F)F)N1CCc2[nH]cnc2[C@@H]1c1nc2c(F)cccc2s1 [Example 2186, (R)-(4-(4-fluorobenzo[d]thiazol-2-yl)-1,4,6,7-tetrahydro-5H-imidazo[4,5-c]pyridin-5-yl)(2-(1-hydroxycyclopropyl)-4-(trifluoromethyl)oxazol-5-yl)methanone] | 1 to 5 |
| (R)-2-((4-(6-fluoro-1H-benzo[d]imidazol-2-yl)-6,7-dihydro-1H-imidazo[4,5-c]pyridin-5(4H)-yl)methyl)thiazole [Example 972] | > 5 |
| (R)-(4-(benzo[d]thiazol-2-yl)-6,7-dihydro-1H-imidazo[4,5-c]pyridin-5(4H)-yl)(2-(1-methyl-3-(trifluoromethyl)-1H-pyrazol-4-yl)thiazol-5-yl)methanone [Example 1390] | 1 to 5 |
| (R)-(4-(benzo[d]thiazol-2-yl)-6,7-dihydro-1H-imidazo[4,5-c]pyridin-5(4H)-yl)(6-bromopyrazolo[1,5-a]pyridin-3-yl)methanone [Example 1046] | 1 to 5 |
| (R)-(4-bromothiazol-5-yl)(4-(4-fluorobenzo[d]thiazol-2-yl)-6,7-dihydro-1H-imidazo[4,5-c]pyridin-5(4H)-yl)methanone [Example 1618] | 0.5 to 1 |
| (R,Z)-1-(4-(1H-benzo[d]imidazol-2-yl)-6,7-dihydro-1H-imidazo[4,5-c]pyridin-5(4H)-yl)-2-(5-(prop-1-en-1-yl)-4-vinylthiazol-2-yl)ethanone [Example 904] | > 5 |
| (S)-(4-(benzo[d]thiazol-2-yl)-6,7-dihydro-1H)-imidazo[4,5-c]pyridin-5(4H)-yl)(6-bromopyrazolo[1,5-a]pyridin-3-yl)methanone [Example 1045] | 0.5 to 1 |
| (S)-(4-bromothiazol-5-yl)(4-(4- fluorobenzo[d]thiazol-2-yl)-6,7-dihydro-1H)- imidazo[4,5-c]pyridin-5(4H)-yl)methanone [Example 1617] | < 0.5 |

Continued, values first:

| AC50 [µM] | Compound |
| --- | --- |
| 1 to 5 | CC(C)(O)c1cc(C(=O)N2CCc3[nH]cnc3[C@@H]2c2nc3c(F)cccc3s2)on1 [Example 2169, (R)-(4-(4-fluorobenzo[d]thiazol-2-yl)-6,7-dihydro-1H-imidazo[4,5-c]pyridin-5(4H)-yl)(3-(2-hydroxypropan-2-yl)isoxazol-5-yl)methanone] |
| 1 to 5 | Cn1nc(C(F)F)nc1C(=O)N1CCc2[nH]cnc2[C@H]1c1nc2ccccc2s1 [Example 2171] |
| 0.5 to 1 | Cc1ccc2sc([C@@H]3c4nc[nH]c4CCN3C(=O)c3cnco3)nc2c1 [Example 2173, (S)-(4-(5-methylbenzo[d]thiazol-2-yl)-6,7-dihydro-1H-imidazo[4,5-c]pyridin-5(4H)-yl)(oxazol-5-yl)methanone] |
| > 5 | Cc1ccc2sc([C@H]3c4nc[nH]c4CCN3C(=O)c3cnco3)nc2c1 [Example 2174, (R)-(4-(5-methylbenzo[d]thiazol-2-yl)-6,7-dihydro-1H-imidazo[4,5-c]pyridin-5(4H)-yl)(oxazol-5-yl)methanone] |
| 0.5 to 1 | Cc1ccc2nc([C@@H]3c4nc[nH]c4CCN3C(=O)c3cnco3)sc2c1 [Example 2175, (S)-(4-(6-methylbenzo[d]thiazol-2-yl)-6,7-dihydro-1H-imidazo[4,5-c]pyridin-5(4H)-yl)(oxazol-5-yl)methanone] |
| 0.5 to 1 | O=C(c1ocnc1-c1ccccc1)N1CCc2[nH]cnc2[C@H]1c1nc2c(F)cccc2s1 [Example 2177, (S)-(4-(4-fluorobenzo[d]thiazol-2-yl)-6,7-dihydro-1H-imidazo[4,5-c]pyridin-5(4H)-yl)(4-phenyloxazol-5-yl)methanone] |
| > 5 | O=C(c1ocnc1-c1ccccc1)N1CCc2[nH]cnc2[C@@H]1c1nc2c(F)cccc2s1 [Example 2178, (R)-(4-(4-fluorobenzo[d]thiazol-2-yl)-6,7-dihydro-1H-imidazo[4,5-c]pyridin-5(4H)-yl)(4-phenyloxazol-5-yl)methanone] |
| > 5 | Cc1cccc2nc([C@H]3c4nc[nH]c4CCN3C(=O)c3cnco3)sc12 [Example 2180, (R)-(4-(7-methylbenzo[d]thiazol-2-yl)-6,7-dihydro-1H-imidazo[4,5-c]pyridin-5(4H)-yl)(oxazol-5-yl)methanone] |
| < 0.5 | CC(C)(C)c1ncoc1C(=O)N1CCc2[nH]cnc2[C@H]1c1nc2c(F)cccc2s1 [Example 2181] |
| < 0.5 | O=C(c1oc(C2(O)CC2)nc1C(F)(F)F)N1CCc2[nH]cnc2[C@H]1c1nc2c(F)cccc2s1 [Example 2185, (S)-(4-(4-fluorobenzo[d]thiazol-2-yl)-1,4,6,7-tetrahydro-5H-imidazo[4,5-c]pyridin-5-yl)(2-(1-hydroxycyclopropyl)-4-(trifluoromethyl)oxazol-5-yl)methanone] |
| 1 to 5 | ((4R)-4-(benzo[d]thiazol-2-yl)-3a,4,6,7,8,8a-hexahydroimidazo[4,5-c]azepin-5(1H)-yl)(4-cyclopropyloxazol-5-yl)methanone [Example 2168] |
| 1 to 5 | ((4R,7R)-4-(benzo[d]thiazol-2-yl)-7-methyl-6,7-dihydro-1H-imidazo[4,5- [Example 1587] |
| 1 to 5 | (R)-2-((4-(6-bromo-1H-benzo[d]imidazol-2-yl)-6,7-dihydro-1H-imidazo[4,5-c]pyridin-5(4H)-yl)methyl)thiazole [Example 968] |
| 1 to 5 | (R)-(5-(difluoromethyl)-1-methyl-1H-pyrazol-4-yl)(4-(4-fluorobenzo[d]thiazol-2-yl)-6,7-dihydro-1H-imidazo[4,5-c]pyridin-5(4H)-yl)methanone [Example 1744] |
